We go through twelve molecules from ChEMBL document CHEMBL1275469, “VIM-15 and VIM-16, two new VIM-2-like metallo-beta-lactamases in Pseudomonas aeruginosa isolates from Bulgaria and Germany” (2008).

Values after ≈ are worked out from the molar mass of the structure shown.

In test [1] the test system is Pseudomonas aeruginosa. In words: Activity of Pseudomonas aeruginosa 166301 beta-lactamase VIM-16.
The subject of test [2] is Pseudomonas aeruginosa. Put plainly: microbe, parasite or virus in culture. To be noted: Pseudomonas aeruginosa, 9551, Urine.
The test system of test [3] is Escherichia coli. In words: Antimicrobial activity against Escherichia coli DH5alpha harboring beta-lactamase VIM-16 by agar dilution method. The test is classed as functional. Conditions: DH5[alpha]. Background: In agar dilution, organisms are placed on agar that contains the substance at set levels.
Test [4] has as its system Escherichia coli. Put plainly: Antimicrobial activity against Escherichia coli DH5alpha harboring beta-lactamase VIM-15 by agar dilution method. The class given is functional. Conditions: DH5[alpha].
The test system of test [5] is Pseudomonas aeruginosa. In words: Activity of Pseudomonas aeruginosa 9551 beta-lactamase VIM-15.
The subject of test [6] is Pseudomonas aeruginosa. In words: Activity of Pseudomonas aeruginosa 166301 beta-lactamase VIM-16 relative to cephaloridine.
Test [7] concerns Pseudomonas aeruginosa. In words: Activity of Pseudomonas aeruginosa 9551 beta-lactamase VIM-15 relative to cephaloridine.
The subject of test [8] is Escherichia coli. Put plainly: Antimicrobial activity against Escherichia coli DH5alpha harboring beta-lactamase VIM-2 by agar dilution method. Conditions: DH5[alpha]. The test is classed as functional.
For test [9], the system named is Escherichia coli. In words: Antimicrobial activity against Escherichia coli DH5alpha by agar dilution method. The class given is functional. Conditions: DH5[alpha].
Test [10] deals with Pseudomonas aeruginosa. Put plainly: Antimicrobial activity against Pseudomonas aeruginosa 166301 expressing beta-lactamase VIM-16 obtained from urine of patient by agar dilution method. The test is classed as functional.
In test [11] the test system is Pseudomonas aeruginosa. Put plainly: Ratio of Kcat to Km for Pseudomonas aeruginosa 166301 beta-lactamase VIM-16.
The subject of test [12] is Pseudomonas aeruginosa. Put plainly: Ratio of Kcat to Km for Pseudomonas aeruginosa 9551 beta-lactamase VIM-15.
Test [13] relates to Pseudomonas aeruginosa. Put plainly: Ratio of Kcat to Km for Pseudomonas aeruginosa 166301 beta-lactamase VIM-16 relative to cephaloridine.
Test [14] has as its system Pseudomonas aeruginosa. Put plainly: Ratio of Kcat to Km for Pseudomonas aeruginosa 9551 beta-lactamase VIM-15 relative to cephaloridine.
The target in test [15] is Beta-lactamase VIM-2 (Pseudomonas aeruginosa) (UniProt Q9K2N0). In words: Activity of Pseudomonas aeruginosa COL-1 beta-lactamase VIM-2 relative to cephaloridine.
For test [16] the target is unchanged. In words: Ratio of Kcat to Km for Pseudomonas aeruginosa COL-1 beta-lactamase VIM-2 relative to cephaloridine.
Test [17] deals with Pseudomonas aeruginosa. Put plainly: Antimicrobial activity against Pseudomonas aeruginosa 166301 expressing beta-lactamase VIM-16 obtained from urine of patient by agar dilution method in presence of beta-lactamase inhibitor Tazobactam. To be noted: Pseudomonas aeruginosa, 166301, Urine. The test is classed as functional.
Test [18] deals with Escherichia coli. In words: Antimicrobial activity against Escherichia coli DH5alpha harboring beta-lactamase VIM-15 by agar dilution method in presence of beta-lactamase inhibitor Tazobactam. The test is classed as functional. To be noted: DH5[alpha].
Test [19] concerns Pseudomonas aeruginosa. Put plainly: Antimicrobial activity against Pseudomonas aeruginosa 9551 expressing beta-lactamase VIM-15 obtained from urine of patient by agar dilution method in presence of beta-lactamase inhibitor Tazobactam. The class given is functional. Conditions: Pseudomonas aeruginosa, 9551, Urine.
The subject of test [20] is Escherichia coli. Put plainly: Antimicrobial activity against Escherichia coli DH5alpha by agar dilution method in presence of beta-lactamase inhibitor Tazobactam. The class given is functional. To be noted: DH5[alpha].
In test [21] the test system is Escherichia coli. Put plainly: Antimicrobial activity against Escherichia coli DH5alpha harboring beta-lactamase VIM-2 by agar dilution method in presence of beta-lactamase inhibitor Tazobactam. Conditions: DH5[alpha]. The test is classed as functional.
The subject of test [22] is Escherichia coli. Put plainly: Antimicrobial activity against Escherichia coli DH5alpha harboring beta-lactamase VIM-16 by agar dilution method in presence of beta-lactamase inhibitor Tazobactam. The class given is functional. To be noted: DH5[alpha].
Where [23] appears, read: Pseudomonas aeruginosa, 166301, Urine.

For the molecule `C[C@H]1[C@H](NC(=O)/C(=N\OC(C)(C)C(=O)O)c2csc(N)n2)C(=O)N1S(=O)(=O)O` [AZTREONAM], the kcat (usually the maximal rate divided by the concentration of active sites) in test [1] is under 0.11 s⁻¹; in test [5], under 0.031 s⁻¹. The MIC in [2] was 16 µg/mL (≈ 36.7 µM); in test [3], 0.016 µg/mL (≈ 0.0367 µM); in test [4], 0.016 µg/mL (≈ 0.0367 µM); in [8], 0.016 µg/mL (≈ 0.0367 µM); in test [9], 0.016 µg/mL (≈ 0.0367 µM); in test [10] (setting [23]) it was 32 µg/mL (≈ 73.5 µM). Further, the Activity was under 0.12% in [6] and under 0.016% in [7].

For the molecule `CO/N=C(\C(=O)N[C@@H]1C(=O)N2C(C(=O)[O-])=C(C[N+]3(C)CCCC3)CS[C@H]12)c1csc(N)n1`, the Km (in general, the substrate concentration at which the rate is half of its maximum) turned out to be 210 µM in test [1] and 130 µM in test [5]. Besides, the kcat in [1] was 0.31 s⁻¹; in test [5], 9.5 s⁻¹. Besides, the MIC in [2] amounted to 32 µg/mL (≈ 66.6 µM); in test [3], 0.03 µg/mL (≈ 0.0624 µM); in test [4], 0.03 µg/mL (≈ 0.0624 µM); in test [8], 0.03 µg/mL (≈ 0.0624 µM); in [9], 0.016 µg/mL (≈ 0.0333 µM); in test [10] (setting [23]) it was 32 µg/mL (≈ 66.6 µM). Further, the Activity in test [6] came out at 0.35%; in [7], 5%; in test [13], 2.3%. In addition, the kcat/Km (commonly the turnover number divided by the Michaelis constant) came to 1500 M⁻¹ s⁻¹ in test [11] and 76000 M⁻¹ s⁻¹ in test [12].

`CO/N=C(\C(=O)N[C@@H]1C(=O)N2C(C(=O)O)=C(COC(C)=O)CS[C@H]12)c1csc(N)n1` [CEFOTAXIME]: the results for the Michaelis-Menten constant (Km) in test [1] and in test [5] were 240 µM and 13 µM, respectively. Also, the catalytic constant (kcat) in test [1] amounted to 81 s⁻¹; in test [5], 90 s⁻¹. Besides, the MIC was over 256 µg/mL in test [2]; 2 µg/mL (≈ 4.39 µM) in test [3]; 4 µg/mL (≈ 8.78 µM) in test [4]; 1 µg/mL (≈ 2.2 µM) in test [8]; 0.03 µg/mL (≈ 0.0659 µM) in test [9]; over 256 µg/mL in test [10] (setting [23]). The Activity in [6] amounted to 91%; in test [7], 47%; in [14] it was 300%; in [13], 530%. Moreover, the specificity constant (kcat/Km) in [11] worked out at 340000 M⁻¹ s⁻¹; in test [12], 6.9e+06 M⁻¹ s⁻¹.

For `O=C(Cc1cccs1)N[C@@H]1C(=O)N2C(C(=O)[O-])=C(C[n+]3ccccc3)CS[C@H]12`, the values for the Km in [1] and in [5] were 1400 µM and 83 µM, respectively. Further, the values for the kcat in test [1] and in [5] were 89 s⁻¹ and 190 s⁻¹, respectively. Besides, the Activity in test [6], in test [7], in [14], in test [15], in test [16] and in [13] was 100% throughout. Further, the results for the kcat/Km in test [11] and in [12] were 64000 M⁻¹ s⁻¹ and 2.3e+06 M⁻¹ s⁻¹, respectively.

As to `CC(C)(O/N=C(\C(=O)N[C@@H]1C(=O)N2C(C(=O)[O-])=C(C[n+]3ccccc3)CS[C@H]12)c1csc(N)n1)C(=O)O` [CEFTAZIDIME], the Km turned out to be 150 µM in [1] and 37 µM in test [5]. In addition, the kcat in test [1] is 0.22 s⁻¹; in [5], 1 s⁻¹. Besides, the MIC is 64 µg/mL (≈ 117 µM) in [2]; 0.5 µg/mL (≈ 0.915 µM) in [3]; 0.5 µg/mL (≈ 0.915 µM) in test [4]; 1 µg/mL (≈ 1.83 µM) in test [8]; 0.13 µg/mL (≈ 0.238 µM) in test [9]; 64 µg/mL (≈ 117 µM) in [10] (setting [23]). For the same molecule, the Activity was found to be 0.25% in test [6], 0.53% in test [7], 1.2% in test [14] and 2.2% in test [13]. The kcat/Km in test [11] was 1400 M⁻¹ s⁻¹; in test [12], 27000 M⁻¹ s⁻¹.

On to `CC1(C)S[C@@H]2[C@H](NC(=O)Cc3ccccc3)C(=O)N2[C@H]1C(=O)O`, for which the Activity in test [13] stood at 800%.

Regarding `NC[C@H]1O[C@H](O[C@H]2[C@H](O)[C@@H](O[C@H]3O[C@H](CO)[C@@H](O)[C@H](N)[C@H]3O)[C@H](N)C[C@@H]2N)[C@H](N)C[C@@H]1O` [TOBRAMYCIN], the MIC is 8 µg/mL (≈ 17.1 µM) in test [2]; 0.25 µg/mL (≈ 0.535 µM) in [3]; 0.25 µg/mL (≈ 0.535 µM) in test [4]; 0.25 µg/mL (≈ 0.535 µM) in [8]; 0.25 µg/mL (≈ 0.535 µM) in [9]; over 128 µg/mL in [10] (setting [23]).

In the case of `C[C@@H](O)[C@H]1C(=O)N2C(C(=O)O)=C(S[C@@H]3CN[C@H](C(=O)N(C)C)C3)[C@H](C)[C@H]12` [MEROPENEM], the MIC in test [2] is 128 µg/mL (≈ 334 µM); in [3], 0.03 µg/mL (≈ 0.0782 µM); in test [4], 0.03 µg/mL (≈ 0.0782 µM); in test [8], 0.03 µg/mL (≈ 0.0782 µM); in test [9], 0.016 µg/mL (≈ 0.0417 µM); in test [10] (setting [23]), over 128 µg/mL. Further, the Activity in test [15] was 1.8%; in test [16], 62%; in test [13] it was 110%.

As to `CC1(C)S[C@@H]2[C@H](NC(=O)[C@H](N)c3ccc(O)cc3)C(=O)N2[C@H]1C(=O)O` [AMOXICILLIN], the MIC was 512 µg/mL (≈ 1400 µM) in test [2]; 256 µg/mL (≈ 701 µM) in test [3]; 256 µg/mL (≈ 701 µM) in test [4]; 256 µg/mL (≈ 701 µM) in [8]; 4 µg/mL (≈ 10.9 µM) in test [9]; over 512 µg/mL in test [10] (setting [23]).

Regarding `C[C@@H](O)[C@H]1C(=O)N2C(C(=O)O)=C(SCCNC=N)C[C@H]12` [IMIPENEM ANHYDROUS], the Km was determined as 89 µM in test [1] and 7.3 µM in test [5]. Moreover, the kcat in [1] was found to be 45 s⁻¹; in test [5], 61 s⁻¹. The MIC is over 128 µg/mL in test [2], 0.5 µg/mL (≈ 1.67 µM) in test [4] and over 128 µg/mL in [10] (setting [23]). In addition, the Activity in [6] turned out to be 51%; in test [7], 32%; in test [14], 370%; in test [15], 17%; in test [16] it was 380%; in test [13] it was 800%. Further, the kcat/Km is 510000 M⁻¹ s⁻¹ in test [11] and 8.4e+06 M⁻¹ s⁻¹ in [12].

On to GENTAMICIN, for which the MIC in [3] was 0.13 µg/mL; in [4], 0.13 µg/mL; in test [8] it was 0.13 µg/mL; in test [9], 0.13 µg/mL; in test [10], over 128 µg/mL.

For `CCN1CCN(C(=O)N[C@@H](C(=O)N[C@@H]2C(=O)N3[C@@H]2SC(C)(C)[C@@H]3C(=O)O)c2ccccc2)C(=O)C1=O` [PIPERACILLIN], the MIC in test [17] stood at 128 µg/mL; in [18], 8 µg/mL; in test [19], 128 µg/mL; in test [20], 1 µg/mL; in test [21], 4 µg/mL; in [22], 8 µg/mL.
